± gives the expanded uncertainty stated by the source.
Conditions: Liquid

Compound | vapor or sublimation pressure (420.46 K) | vapor or sublimation pressure (431.49 K) | vapor or sublimation pressure (439.8 K) | vapor or sublimation pressure (420.74 K) | vapor or sublimation pressure (432.29 K) | vapor or sublimation pressure (440.15 K)
CCC(O)CO (stereo unspecified) [1,2-butanediol] | 20 ± 2 kPa | 30 ± 2 kPa | 40 ± 2 kPa | – | – | –
OCCO [1,2-ethanediol] | – | – | – | 20 ± 2 kPa | 30 ± 2 kPa | 40 ± 2 kPa

From the NIST ThermoML archive (doi:10.1021/je400980w)
